# What was measured:
# [1] = test system: Mus musculus; assay: In vivo antitumor activity against lymphocytic leukemia P388 in mice expressed as maximal increase in life span at an optimal dose of 2 mg/kg.; format: functional
# [2] = test system: Mus musculus; assay: In vivo antitumor activity against murine sarcoma 180 cells at an optimal dose of 2 mg/kg.; format: functional
# [3] = test system: HeLa; assay: In vitro antiproliferative activity against HeLa S3 cells.; format: functional, cell-based; details: Homo sapiens
# [4] = test system: Mus musculus; assay: In vivo antitumor activity against lymphocytic leukemia P388 in mice expressed as maximal increase in life span at an optimal dose of 8 mg/kg.; format: functional
# [5] = test system: Mus musculus; assay: In vivo antitumor activity against murine sarcoma 180 cells at an optimal dose of 4 mg/kg.; format: functional
# [6] = test system: Mus musculus; assay: In vivo antitumor activity against murine sarcoma 180 cells at an optimal dose of 8 mg/kg.; format: functional
# [7] = test system: Mus musculus; assay: Antitumor activity against human Lu-65 tumor cells, at a dose of 5.3 mg/kg upon i.v. administration in nude mice; format: functional; details: route intravenous
# [8] = test system: Mus musculus; assay: In vivo antitumor activity against murine sarcoma 180 cells at an optimal dose of 16 mg/kg.; format: functional
# [9] = test system: Mus musculus; assay: In vivo antitumor activity against lymphocytic leukemia P388 in mice expressed as maximal increase in life span at an optimal dose of 4 mg/kg.; format: functional
# [10] = test system: Mus musculus; assay: Antitumor activity against human Lu-65 tumor cells, at a dose of 12 mg/kg upon i.v. administration in nude mice; format: functional; details: route intravenous
# [11] = test system: Mus musculus; assay: Antitumor activity against human A-2780 tumor cells, at a dose of 12 mg/kg upon i.v. administration in nude mice; format: functional; details: route intravenous
# [12] = test system: Mus musculus; assay: In vivo antitumor activity against lymphocytic leukemia P388 in mice expressed as maximal increase in life span at an optimal dose of 16 mg/kg.; format: functional
# [13] = test system: Mus musculus; assay: Antitumor activity against human HCT116 tumor cells, at a dose of 5.3 mg/kg upon i.v. administration in nude mice; format: functional; details: route intravenous
# [14] = test system: Mus musculus; assay: Antitumor activity against human A-2780 tumor cells, at a dose of 5.3 mg/kg upon i.v. administration in nude mice; format: functional; details: route intravenous
# [15] = test system: Mus musculus; assay: Antitumor activity against human Lu-65 tumor cells, at a dose of 8 mg/kg upon i.v. administration in nude mice; format: functional; details: route intravenous
# [16] = test system: Mus musculus; assay: In vivo antitumor activity against murine sarcoma 180 cells at an optimal dose of mg/kg.; format: functional
# [17] = test system: Mus musculus; assay: Antitumor activity against human HCT116 tumor cells, at a dose of 12 mg/kg upon i.v. administration in nude mice; format: functional; details: route intravenous
smiles,measurement,setting,value
C/C1=C\[C@@H](O)C(=O)/C=C/C=Cc2csc(n2)[C@@H](C)N2C(=O)C[C@@]([C@@](C)(O)C(=O)SCc3oc(=O)oc3C)(CC1)[S+]2[O-] (stereo partly drawn),ILS at 2 mg/kg,[1],65%
same,T/C,[2],0.67
C/C1=C\[C@@H](OC(=O)CNC(=O)CNC(=O)OCc2ccccc2)C(=O)/C=C/C=C/c2csc(n2)[C@@H](C)N2C(=O)C[C@@]([C@@](C)(O)C(=O)SCc3oc(=O)oc3C)(CC1)[S+]2[O-] (stereo partly drawn),IC50,[3],15 nM
same,ILS at 8 mg/kg,[4],64%
same,T/C,[5],0.61
COCCOCCOCC(=O)O[C@@H]1/C=C(\C)CC[C@]2([C@@](C)(O)C(=O)SCc3oc(=O)oc3C)CC(=O)N([C@H](C)c3nc(cs3)/C=C/C=C/C1=O)[S+]2[O-] (stereo partly drawn),IC50,[3],5.5 nM
same,ILS at 2 mg/kg,[1],54%
same,T/C,[6],0.39
same,T/C,[7],0.35
C/C1=C\[C@@H](OC(=O)CNC(=O)CCNC(=O)OC(C)(C)C)C(=O)/C=C/C=C/c2csc(n2)[C@@H](C)N2C(=O)C[C@@]([C@@](C)(O)C(=O)SCc3oc(=O)oc3C)(CC1)[S+]2[O-] (stereo partly drawn),IC50,[3],12 nM
same,ILS at 8 mg/kg,[4],70%
same,T/C,[8],0.23
C/C1=C\[C@@H](OC(=O)CNC(=O)CNC(=O)OC(C)(C)C)C(=O)/C=C/C=C/c2csc(n2)[C@@H](C)N2C(=O)C[C@@]([C@@](C)(O)C(=O)SCc3oc(=O)oc3C)(CC1)[S+]2[O-] (stereo partly drawn),IC50,[3],14 nM
same,ILS at 4 mg/kg,[9],39%
same,T/C,[6],0.39
same,T/C,[10],0.33
same,T/C,[11],0.51
C/C1=C\[C@@H](OC(=O)CNC(=O)OCc2ccccc2)C(=O)/C=C/C=C/c2csc(n2)[C@@H](C)N2C(=O)C[C@@]([C@@](C)(O)C(=O)SCc3oc(=O)oc3C)(CC1)[S+]2[O-] (stereo partly drawn),IC50,[3],4 nM
same,ILS at 8 mg/kg,[4],98%
same,T/C,[8],0.36
COCCOCCOCCOCCOCCOCC(=O)O[C@@H]1/C=C(\C)CC[C@]2([C@@](C)(O)C(=O)SCc3oc(=O)oc3C)CC(=O)N([C@H](C)c3nc(cs3)/C=C/C=C/C1=O)[S+]2[O-] (stereo partly drawn),IC50,[3],43 nM
same,T/C,[6],0.58
C/C1=C\[C@@H](OC(=O)CNC(=O)CNC(=O)c2ccccc2)C(=O)/C=C/C=C/c2csc(n2)[C@@H](C)N2C(=O)C[C@@]([C@@](C)(O)C(=O)SCc3oc(=O)oc3C)(CC1)[S+]2[O-] (stereo partly drawn),IC50,[3],32 nM
same,ILS at 16 mg/kg,[12],90%
same,T/C,[6],0.46
C/C1=C\[C@@H](OC(=O)CCNC(=O)CCNC(=O)OCc2ccccc2)C(=O)/C=C/C=C\c2csc(n2)[C@H](C)NC(=O)C[C@@]2(CC1)[S+]([O-])SC(=O)[C@]2(C)O (stereo partly drawn),IC50,[3],61 nM
same,ILS at 16 mg/kg,[12],62%
same,T/C,[8],0.58
C/C1=C\[C@@H](OC(=O)CNC=O)C(=O)/C=C/C=C\c2csc(n2)[C@H](C)NC(=O)C[C@@]2(CC1)[S+]([O-])SC(=O)[C@]2(C)O (stereo partly drawn),IC50,[3],11 nM
same,ILS at 8 mg/kg,[4],56%
same,T/C,[5],0.46
same,T/C,[13],0.62
same,T/C,[14],0.29
same,T/C,[7],0.43
COCCOCCOCCOCCOCCOCC(=O)O[C@@H]1/C=C(\C)CC[C@]2(CC(=O)N[C@@H](C)c3nc(cs3)/C=C\C=C\C1=O)[S+]([O-])SC(=O)[C@]2(C)O (stereo partly drawn),IC50,[3],11 nM
same,T/C,[6],0.3
same,T/C,[15],0.2
COCCOCCOCCOCC(=O)O[C@@H]1/C=C(\C)CC[C@]2(CC(=O)N[C@@H](C)c3nc(cs3)/C=C\C=C\C1=O)[S+]([O-])SC(=O)[C@]2(C)O (stereo partly drawn),IC50,[3],610 nM
same,T/C,[5],0.82
C/C1=C\[C@@H](OC(=O)CNC(=O)OCc2ccccc2)C(=O)/C=C/C=C\c2csc(n2)[C@H](C)NC(=O)C[C@@]2(CC1)[S+]([O-])SC(=O)[C@]2(C)O (stereo partly drawn),IC50,[3],6.2 nM
same,ILS at 8 mg/kg,[4],54%
same,T/C,[16],0.89
C/C1=C\[C@@H](OC(=O)COCCOCCO)C(=O)/C=C/C=C\c2csc(n2)[C@H](C)NC(=O)C[C@@]2(CC1)[S+]([O-])SC(=O)[C@]2(C)O (stereo partly drawn),IC50,[3],25 nM
same,T/C,[5],0.36
C/C1=C\[C@@H](OC(=O)CNC(=O)CNC(=O)OCc2ccccc2)C(=O)/C=C/C=C\c2csc(n2)[C@H](C)NC(=O)C[C@@]2(CC1)[S+]([O-])SC(=O)[C@]2(C)O (stereo partly drawn),IC50,[3],23 nM
same,ILS at 4 mg/kg,[9],72%
same,T/C,[6],0.3
same,T/C,[10],0.3
same,T/C,[11],0.63
same,T/C,[17],0.48
C/C1=C\[C@@H](OC(=O)CCNC(=O)CNC(=O)OCc2ccccc2)C(=O)/C=C/C=C\c2csc(n2)[C@H](C)NC(=O)C[C@@]2(CC1)[S+]([O-])SC(=O)[C@]2(C)O (stereo partly drawn),IC50,[3],150 nM
same,ILS at 16 mg/kg,[12],71%
same,T/C,[8],0.69

# — ChEMBL document CHEMBL1145735, “Synthesis and antitumor activity of novel C-8 ester derivatives of leinamycin” (Bioorg Med Chem Lett, 2003)
